Experimental data published in patent publication US7700613B2, “Use of 7-t-butoxyiminomethylcamptothecin for the preparation of a medicament for the treatment of uterine neoplasms” (Sigma-Tau Farmaceutiche Riunite, S.p.A., priority 2004, dated 2010).

Experiments:
[1] = preclinical trials in vivo
From the text: Gimatecan is a new anticancer compound that has shown a high therapeutic index in preclinical trials in vivo. Moreover, gimatecan is characterised by an anticancer activity that is maintained with different administration regimens, both intermittent and prolonged.

[2] = test system: uterine cancers, both of the cervix and the endometrium; assay: European phase I trial of gimatecan as single therapeutic agent in patients with advanced cancers; format: in vivo
Description: In the light of this preclinical evidence, a European phase I trial was conducted in which gimatecan was administered as a single therapeutic agent with different administration regimens. The patients studied were affected by advanced cancers for which curative or standard therapy was no longer indicated. Although the aim of the study was to assess the tolerability of the treatment with gimatecan, in the course of this clinical trial gimatecan produced a number of lasting objective clinical responses. Particularly worthy of mention are the responses of a number of patients with uterine cancers, both of the cervix and the endometrium, including forms which had received substantial previous treatments and presented metastatic disease.
These responses were subjected to two independent assessments by experts not taking part in the clinical trial, who confirmed the observations.

Question: Which therapeutic index [1] does the source give for `CC[C@@]1(O)C(=O)OCc2c1cc1n(c2=O)Cc2c-1nc1ccccc1c2/C=N/OC(C)(C)C` [gimatecan, 7-terbutoxyiminomethylcamptothecin] here?
Answer: high

Question: What about the objective clinical response ([2]; patients with uterine cancers (cervix and endometrium), incl. substantially pretreated and metastatic disease, assessed by computed tomography, confirmed by two independent assessments) of the same compound?
Answer: partial responses

Question: What about the “reduction of the tumour lesion or lesions” value ([2]; responding patients with uterine cancers, diagnostic imaging such as computed tomography, definition of partial response) of the same compound?
Answer: more than 30%
